Results from patent US10258072B2, “Environmentally friendly gelator using medium chain triglycerides and method of use” (Research Foundation of the City University of New York, priority 2014, dated 2019).

How the values were obtained:
[1] = Gelation test by vial inversion: gelation index and minimum gelation concentration (MGC); type: physicochemical; set-up: key to Gelation Index: I = Insoluble; PS = Partially Soluble
Method: (§1) Preparation and Characterization Molecular Gels. Gels were prepared by adding the solid glassy glycosides (10.0-50.0 mg gelator) to the desired solvent (1 mL). The mixture was then heated to disperse the gelator at five degrees below the boiling point of organic solvents, and at 125° C. for oils to produce a homogeneous sol. The sol was kept at this temperature for 10 minutes under constant agitation to fully disperse the gelator. The sol was then cooled to room temperature to allow for self-assembly and after a length of time (between 2-24 hours), the samples were inverted to confirm gel formation. The efficacy of gel formation was examined by determining the minimum gelation concentration (MGC) and gel-to-sol transition temperature (Tgel). Gel samples were diluted with solvent until after setting and vial inversion a gel, partial gel, or sol was formed. The gel transition temperature was determined by submersing a gel sample in an oil bath, and increasing the temperature until the gel flowed like a liquid, indicating the disassembly of the gelator structure. MGC was determined beginning from 5 wt. % samples (50 mg gelator in 1 mL solvent) or below the concentration of precipitation for gelators and diluting the samples until a sol is formed.

[2] = Gel-to-sol transition temperature (Tgel) in oil bath; type: physicochemical
Method: as §1, with “structure.” for “structure. MGC was determined beginning from 5 wt. % samples (50 mg gelator in 1 mL solvent) or below the concentration of precipitation for gelators and diluting the samples until a sol is formed.”

Minimum Gelation Concentration ([1]; Coconut Oil (edible oil)) [wt. %]	Minimum Gelation Concentration ([1]; Grape seed Oil (edible oil)) [wt. %]	Minimum Gelation Concentration ([1]; Hazelnut Oil (edible oil)) [wt. %]	Minimum Gelation Concentration ([1]; Hexanes (organic solvent)) [wt. %]	Minimum Gelation Concentration ([1]; Jojoba Oil (edible oil)) [wt. %]	Minimum Gelation Concentration ([1]; Mineral Oil (organic solvent)) [wt. %]	Minimum Gelation Concentration ([1]; Red Palm Oil (edible oil)) [wt. %]	Minimum Gelation Concentration ([1]; Toluene (organic solvent)) [wt. %]	Gelation Index ([1]; Water (aqueous solvent))	Tgel ([2]; 5 wt. % gel in Coconut Oil)	Structure (SMILES)	other results
0.28	0.30	0.24	0.24	0.26	0.24	0.36	0.36	I	111-112 °C	CCCCCCCCCCCCCCCCCC(=O)OCC1OC(Oc2ccc(CCC(C)=O)cc2)C(O)C(O)C1O (stereo not drawn) [RKG18, raspberry ketone glucoside stearate]	–
0.54	0.66	0.56	–	0.48	0.80	0.72	0.73	–	–	CCCCCCCCC=CCCCCCCCC(=O)OCC1OC(Oc2ccc(CCC(C)=O)cc2)C(O)C(O)C1O (stereo not drawn) [RKGO, raspberry ketone glucoside oleate]	MGC ([1]; RKGO gels compared to saturated analogues): greater than 0.5 wt. %
–	–	–	–	–	–	–	–	PS	–	CC(=O)CCc1ccc(O[C@@H]2O[C@H](CO)[C@@H](O)[C@H](O)[C@H]2O)cc1 [Raspberry ketone glucoside, reference compound]	Gelation Index ([1]; Coconut Oil (edible oil)): I; Gelation Index ([1]; Grape seed Oil (edible oil)): I; Gelation Index ([1]; Hazelnut Oil (edible oil)): I; Gelation Index ([1]; Hexanes (organic solvent)): I; Gelation Index ([1]; Jojoba Oil (edible oil)): I; Gelation Index ([1]; Mineral Oil (organic solvent)): I; Gelation Index ([1]; Red Palm Oil (edible oil)): I; Gelation Index ([1]; Toluene (organic solvent)): PS
0.27	0.25	0.26	2.1	0.25	1.4	0.34	0.5	I	106-107 °C	CCCCCCCC(=O)OC[C@H]1O[C@@H](Oc2ccc(CCC(C)=O)cc2)[C@H](O)[C@@H](O)[C@@H]1O [RKG8, ((2R,3S,4S,5R,6S)-3,4,5-trihydroxy-6-(4-(3-oxobutyl)phenoxy)tetrahydro-2H-pyran-2-yl) methyl octanoate]	Tgel ([2]; 5 wt. % gel in Olive Oil): 108-110 °C; Tgel ([2]; 5 wt. % gel in Toluene): 48-50 °C
